Experimental data: publication PMC8320704 (Journal of medicinal chemistry, 2015)
Where “and” joins values, the source holds several entries; their conditions need not be identical. Equal entries are not always repeated. Where two headings read alike, the source gives them in different places.

Columns and labels:
HIV-1 IN (ST) [1] = target: T1, HIV-1 IN (ST) (Human immunodeficiency virus type 1 group M subtype B, UniProt P04585); experiment: HIV-1 IN gel-based assay, strand transfer; assay type: biochemical
HIV-1 IN (3′-P) [2] = target: T2, HIV-1 IN (3′-P) (Human immunodeficiency virus type 1 group M subtype B, UniProt P04585); experiment: HIV-1 IN gel-based assay, 3′-processing; assay type: biochemical
HIV-1 RT RNase H = HIV-1 RT RNase H (Human immunodeficiency virus type 1 group M subtype B, UniProt P04585); experiment: HIV-1 RT RNase H inhibition; assay type: biochemical
HIV-1 IN (ST) [3] = target: T1, HIV-1 IN (ST); conditions: read-out: ST IC50, previously reported compound; cited from earlier work
HIV-1 IN (3′-P) [4] = target: T2, HIV-1 IN (3′-P); conditions: read-out: 3′-P IC50, previously reported compounds; cited from earlier work

Row | Structure (SMILES) | IC50 (HIV-1 IN (ST) [1]) | IC50 (HIV-1 IN (3′-P) [2]) | IC50 (HIV-1 RT RNase H; RNase H IC50, Table 1) | IC50 (HIV-1 RT RNase H; RNase H IC50, text) | IC50 (HIV-1 IN (ST) [3]) | IC50 (HIV-1 IN (3′-P) [4])
1 | CCOC(=O)/C(O)=C/C(=O)c1cn(Cc2ccc(Cl)cc2)c2ccccc2c1=O [10f, 4-[1-(4-Chlorophenyl)methyl-4(1H)-quinolinon-3-yl]-2-hydroxy-4-oxo-2-butenoic Acid Ethyl Ester] | > 37 µM | > 37 µM | – | – | – | –
2 | CCOC(=O)/C(O)=C/C(=O)c1cn(Cc2ccc(OC)cc2)c2ccccc2c1=O [10h, 4-[1-(4-Methoxyphenyl)methyl-4(1H)-quinolinon-3-yl]-2-hydroxy-4-oxo-2-butenoic Acid Ethyl Ester] | > 37 µM | > 37 µM | – | – | – | –
3 | CCOC(=O)/C(O)=C/C(=O)c1cn(Cc2ccc([N+](=O)[O-])cc2)c2ccccc2c1=O [10i, 4-[1-(4-Nitrophenyl)methyl-4(1H)-quinolinon-3-yl]-2-hydroxy-4-oxo-2-butenoic Acid Ethyl Ester] | > 37 µM | > 37 µM | – | – | – | –
4 | CCOC(=O)/C(O)=C/C(=O)c1cn(Cc2ccc(Cl)cc2Cl)c2ccccc2c1=O [10o, 4-[1-(2,4-Dichlorophenyl)methyl-4(1H)-quinolinon-3-yl]-2-hydroxy-4-oxo-2-butenoic Acid Ethyl Ester] | > 111 µM | – | > 50 µM | – | – | –
5 | CCOC(=O)/C(O)=C/C(=O)c1cn(Cc2ccc(C)cc2C)c2ccccc2c1=O [10q, 4-[1-(2,4-Dimethylphenyl)methyl-4(1H)-quinolinon-3-yl]-2-hydroxy-4-oxo-2-butenoic Acid Ethyl Ester] | > 111 µM | – | > 50 µM | – | – | –
6 | O=C(O)/C(O)=C/C(=O)c1cn(CCCCc2ccccc2)c2ccccc2c1=O [11x, 2-Hydroxy-4-oxo-4-(4-oxo-1-(4-phenylbutyl)-1,4-dihydroquinolin-3-yl)but-2-enoic Acid] | < 0.45 µM | > 333 µM | – | – | – | –
7 | O=C(O)/C(O)=C/C(=O)c1cn(Cc2ccc(F)cc2)c2cc(Cl)c(Cl)cc2c1=O [compound 8] | – | – | – | 42 µM | 0.033 µM and 0.04 µM | > 50 µM
